Measured values taken from PubChem BioAssay (NCI).
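Assay format: 96-well plates, 48-hour exposure. TGI denotes the concentration required for complete inhibition of growth.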

Assays:
Assay in all cases: NCI anticancer screen, dose series, 48 h
DMS 273 small cell lung = system: DMS 273 small cell lung
XF 498 CNS = system: XF 498 CNS
MCF7 breast = system: MCF7 breast
NCI/ADR-RES ovarian = system: NCI/ADR-RES ovarian
HCT-116 colon = system: HCT-116 colon
DLD-1 colon = system: DLD-1 colon
DMS 114 small cell lung = system: DMS 114 small cell lung
KM20L2 colon = system: KM20L2 colon
SNB-19 CNS = system: SNB-19 CNS
A549 NSCLC = system: A549 NSCLC
SF-268 CNS = system: SF-268 CNS
MDA-MB-231 breast = system: MDA-MB-231 breast
MDA-MB-435 = system: MDA-MB-435
M14 melanoma = system: M14 melanoma
PC-3 prostate = system: PC-3 prostate
MDA-N = system: MDA-N
T-47D breast = system: T-47D breast
DU-145 prostate = system: DU-145 prostate
BT-549 breast = system: BT-549 breast
SR leukemia = system: SR leukemia

Row | SMILES | TGI (DMS 273 small cell lung) | TGI (XF 498 CNS) | TGI (MCF7 breast) | TGI (NCI/ADR-RES ovarian) | TGI (HCT-116 colon) | TGI (DLD-1 colon) | TGI (DMS 114 small cell lung) | TGI (KM20L2 colon) | TGI (SNB-19 CNS) | TGI (A549 NSCLC) | TGI (SF-268 CNS) | TGI (MDA-MB-231 breast) | TGI (MDA-MB-435) | TGI (M14 melanoma) | TGI (PC-3 prostate) | TGI (MDA-N) | TGI (T-47D breast) | TGI (DU-145 prostate) | TGI (BT-549 breast) | TGI (SR leukemia)
1 | CN(C)C(=O)OCOC(=O)N(C)C | > 100 µM | > 100 µM | > 100 µM | > 100 µM | > 100 µM | > 100 µM | > 100 µM | > 100 µM | > 100 µM | > 100 µM | > 100 µM |  |  |  |  |  |  |  |  | 
2 | COc1ccnc2c1C(=O)c1nc3ccccc3c3ccnc-2c13 |  |  | 0.298 µM | 0.147 µM | 1.03 µM |  |  |  | 0.562 µM | 2.02 µM |  | 3.87 µM | 1.52 µM | 0.272 µM | 1.81 µM | 0.904 µM | 1.34 µM | 0.31 µM | 1.44 µM | 
3 | CCCCN1C=CN2c3nc4cc(C)c(C)cc4n3C(C(=O)OC)=C(C(=O)OC)C12 (centres undefined) | > 100 µM | > 100 µM |  |  | > 100 µM | > 100 µM | > 100 µM | > 100 µM | > 100 µM | > 100 µM | > 100 µM |  |  | > 100 µM |  |  |  |  |  | > 100 µM
4 | CN(C)C(=O)NCCN1CCCCCc2ccccc21 |  |  | > 100 µM | > 100 µM | > 100 µM |  |  |  | > 100 µM | > 100 µM | > 100 µM | > 100 µM | > 100 µM | > 100 µM | > 100 µM | > 100 µM | > 100 µM | > 100 µM |  | > 100 µM
5 | O=c1c(-c2ccccc2)c(SCCCN2CCN(c3cccc(Cl)c3)CC2)n(-c2ccccc2)c(=S)n1-c1ccccc1 |  |  | > 100 µM | > 100 µM |  |  |  |  |  |  |  | > 100 µM | 42.4 µM |  | > 100 µM |  |  | > 100 µM | > 100 µM | > 100 µM
6 | CCOC(=O)CC1CCN(C(=O)c2ccccc2)C2Cc3c([nH]c4ccccc34)C12C[N+](=O)[O-] (centres undefined) |  |  | > 100 µM | > 100 µM |  |  |  |  |  |  | > 100 µM | > 100 µM | > 100 µM | > 100 µM | > 100 µM | > 100 µM | > 100 µM | > 100 µM | > 100 µM | > 100 µM
7 | COC(=O)c1ccc(/C=C2\N=C(C)OC2=O)cc1 | > 100 µM | > 100 µM |  |  | > 100 µM | > 100 µM | > 100 µM | > 100 µM | > 100 µM | > 100 µM | > 100 µM |  |  | > 100 µM |  |  |  |  |  | 
